Experiments:
Calu-3 cells = experiment: Cytotoxicity in Calu-3 cells, nuclei count or CellTiter-Glo (Example 6); details: for select compounds up to 100 μM by CellTiter-Glo
Method: After which an equal volume of CellTiter-Glo reagent (Cat. #G7570, Promega, Madison, WI) was added, mixed and luminescence recorded on a Veritas Microplate Luminometer (Turner BioSystems) according to manufacturer recommendations.

SARS-CoV-2 [1] = experiment: SARS-CoV-2 infection assay in Calu-3 cells, nucleocapsid immunofluorescence (Example 6); details: MOI 0.01, 44 hour
HIV-1 = details: HIV infected human PBMCs
Method: Antiviral activities were determined in HIV infected human PBMCs.

SARS-CoV-2 [2] = experiment: SARS-CoV-2 infection assay in Huh7.5 cells, nucleocapsid immunofluorescence (Example 6); type: cell-based; details: MOI 0.1, 48 hours
HCoV-229E = type: cell-based, human Coronavirus 229E
SARS-CoV-2 [3] = experiment: SARS-CoV-2 infection assay in TMPRSS2-Vero cells, nucleocapsid immunofluorescence (Example 6); type: cell-based; details: MOI 0.01, 32 hours
Huh7.5 cells = experiment: Cytotoxicity in Huh7.5 cells, nuclei count (Example 6); type: cell-based, human; details: Huh7.5 cells; read-out: CC50
TMPRSS2-Vero cells = experiment: Cytotoxicity in TMPRSS2-Vero cells, nuclei count (Example 6); type: cell-based; details: TMPRSS2-Vero cells; read-out: CC50
HFF cells = experiment: Persistence of TFVpp in HFF cells after a 3 day exposure
From the text: HFF cells were exposed to 1 micromolar drug for 3 days. At days 0, 1, 2, 4, 7, 14, 21, and 28, cells were trypsinized, counted, and processed for LC/MS measurement of TFVpp. Data were expressed at ftg/cell. nm=not meaningful; ftg—gemtogram.

1-O-Octadecyl-2-O-(ethylcyclohexyl)-sn-glyceryl-phospho-RVn [Compound 15g]
CC50 (Calu-3 cells): > 20000 nM | EC50 (SARS-CoV-2 [1]): 147 ± 32 nM | EC90 (SARS-CoV-2 [1]): 1660 ± 798 nM

CCCCCCCCCCCCCCCCCCOCCOP(=O)(CO[C@H](C)Cn1cnc2c(N)nc(N)nc21)OCc1ccccc1 (stereo partly drawn) [ODE-Bn-PMPDAP, Octadecyloxyethyl benzyl 9-(R)-[(2-phosphonomethoxy)propyl]-2,6-diaminopurine]
EC50 (HIV-1): active

CCCCCCCCCCCCCCCCCCOC[C@H](COP(=O)(O)OC[C@H]1O[C@@](C#N)(c2ccc3c(N)ncnn23)[C@H](O)[C@@H]1O)OCCCCCCCC [Compound 15f, 1-O-Octadecyl-2-O-octyl-sn-glyceryl-phospho-RVn]
EC50 (SARS-CoV-2 [2]): 710 nM | EC90 (SARS-CoV-2 [2]): 1710 nM | CC50 (Calu-3 cells): > 20000 nM | EC50 (HCoV-229E): 120 ± 57 nM | EC90 (HCoV-229E): 290 ± 58 nM | EC50 (SARS-CoV-2 [1]): 410 ± 60 nM | EC90 (SARS-CoV-2 [1]): 2310 ± 738 nM | EC50 (SARS-CoV-2 [3]): 1330 nM | EC90 (SARS-CoV-2 [3]): 2350 nM | CC50 (MRC-5 cells): > 50000 nM | CC50 (Huh7.5 cells): > 20000 nM | CC50 (TMPRSS2-Vero cells): > 20000 nM

CCCCCCCCCCCCCCCCOCCCOP(=O)(CO[C@H](C)Cn1cnc2c(N)ncnc21)OCc1ccccc1 (stereo partly drawn) [HDP-Bn-TFV]
T1/2 of TFVpp (HFF cells): 1.8 | Tmax of TFVpp (HFF cells): 0 h

CCCCCCCC/C=C\CCCCCCCCOCCOP(=O)(CO[C@H](C)Cn1cnc2c(N)nc(N)nc21)OCc1ccccc1 (stereo partly drawn) [OLE-Bn-PMPDAP, Oleyloxyethyl benzyl 9-(R)-[(2-phosphonomethoxy)propyl]-2,6-diaminopurine]
EC50 (HIV-1): active

CCCCCCCCCCCCCCOC[C@H](COP(=O)(O)OC[C@H]1O[C@@](C#N)(c2ccc3c(N)ncnn23)[C@H](O)[C@@H]1O)OCc1ccccc1 [Compound 15a, 1-O-Tetradecyl-2-O-benzyl-sn-glyceryl-phospho-RVn]
EC50 (SARS-CoV-2 [2]): 156 nM | EC90 (SARS-CoV-2 [2]): 493 nM | CC50 (Calu-3 cells): > 20000 nM | EC50 (HCoV-229E): 760 ± 340 nM | EC90 (HCoV-229E): 3250 nM | EC50 (SARS-CoV-2 [1]): 212 ± 25 nM | EC90 (SARS-CoV-2 [1]): 536 ± 150 nM | EC50 (SARS-CoV-2 [3]): 901 nM | EC90 (SARS-CoV-2 [3]): 1690 nM | CC50 (MRC-5 cells): > 50000 nM | CC50 (Huh7.5 cells): > 20000 nM | CC50 (TMPRSS2-Vero cells): > 20000 nM

CCCCCCCC/C=C\CCCCCCCCOC[C@H](COP(=O)(O)OC[C@H]1O[C@@](C#N)(c2ccc3c(N)ncnn23)[C@H](O)[C@@H]1O)OCc1ccccc1 [Compound 15l, 1-O-Oleyl-2-O-benzyl-sn-glyceryl-phospho-RVn]
EC50 (SARS-CoV-2 [2]): 100 nM | EC90 (SARS-CoV-2 [2]): 246 nM | CC50 (Calu-3 cells): 79000 ± 6950 nM | EC50 (HCoV-229E): 130 ± 29 nM | EC90 (HCoV-229E): 260 ± 3.7 nM | EC50 (SARS-CoV-2 [1]): 198 ± 77 nM | EC90 (SARS-CoV-2 [1]): 294 ± 93 nM | EC50 (SARS-CoV-2 [3]): 295 nM | EC90 (SARS-CoV-2 [3]): 568 nM | CC50 (MRC-5 cells): > 50000 nM | CC50 (Huh7.5 cells): > 20000 nM | CC50 (TMPRSS2-Vero cells): > 20000 nM

CCCCCCCCCCCCCCCCCCOC[C@H](COP(=O)(O)OC[C@H]1O[C@@](C#N)(c2ccc3c(N)ncnn23)[C@H](O)[C@@H]1O)OCc1cccc(F)c1 [Compound 15h, 1-O-Octadecyl-2-O-(3-fluoro-benzyl)-sn-glyceryl-phospho-RVn]
EC50 (SARS-CoV-2 [2]): 182 nM | EC90 (SARS-CoV-2 [2]): 444 nM | CC50 (Calu-3 cells): > 20000 nM | EC50 (HCoV-229E): 1400 ± 58 nM | EC90 (HCoV-229E): 2800 ± 40 nM | EC50 (SARS-CoV-2 [1]): 216 ± 62 nM | EC90 (SARS-CoV-2 [1]): 548 ± 368 nM | EC50 (SARS-CoV-2 [3]): 270 nM | EC90 (SARS-CoV-2 [3]): 629 nM | CC50 (MRC-5 cells): 22900 ± 100 nM | CC50 (Huh7.5 cells): > 20000 nM | CC50 (TMPRSS2-Vero cells): > 20000 nM

CCCCCCCCCCCCCCCCCCOC[C@H](COP(=O)(OCc1ccccc1)OC[C@H]1O[C@@](C#N)(c2ccc3c(N)ncnn23)[C@H](O)[C@@H]1O)OCc1ccccc1 (stereo partly drawn) [Compound 17, 1-O-Octadecyl-2-O-benzyl-sn-glyceryl-benzyl-phospho-RVn]
EC50 (SARS-CoV-2 [2]): 3540 nM | EC90 (SARS-CoV-2 [2]): 16400 nM | CC50 (Calu-3 cells): > 20000 nM | EC50 (HCoV-229E): 1500 ± 930 nM | EC90 (HCoV-229E): 4270 ± 880 nM | EC50 (SARS-CoV-2 [1]): 5320 ± 1390 nM | EC90 (SARS-CoV-2 [1]): 10900 ± 5480 nM | EC50 (SARS-CoV-2 [3]): 7440 nM | EC90 (SARS-CoV-2 [3]): 15300 nM | CC50 (MRC-5 cells): > 50000 nM | CC50 (Huh7.5 cells): > 20000 nM | CC50 (TMPRSS2-Vero cells): > 20000 nM

CCCCCCCCCCCCCCCCCCOC[C@H](COP1(=O)OC[C@H]2O[C@@](C#N)(c3ccc4c(N)ncnn34)[C@H](O)[C@@H]2O1)OCc1ccccc1 (stereo partly drawn) [Compound 18-eq, GS-441524-3′,5′-cyclic monophosphate, 1-O-octadecyl-2-O-benzyl-sn-glyceryl ester]
CC50 (Calu-3 cells): > 20000 nM | EC50 (SARS-CoV-2 [1]): > 20000 nM | EC90 (SARS-CoV-2 [1]): > 20000 nM

CCCCCCCCCCCCCCCCCCOC[C@H](COP(=O)(O)OC[C@H]1O[C@@](C#N)(c2ccc3c(N)ncnn23)[C@H](O)[C@@H]1O)OCc1cccc(C(F)(F)F)c1 [Compound 15o, 1-O-Octadecyl-2-O-(3-trifluoromethyl)benzyl-sn-glyceryl-phospho-RVn]
CC50 (Calu-3 cells): > 20000 nM | EC50 (HCoV-229E): 160 ± 46 nM | EC90 (HCoV-229E): 460 ± 270 nM | EC50 (SARS-CoV-2 [1]): 166 ± 68 nM | EC90 (SARS-CoV-2 [1]): 278 ± 109 nM | CC50 (MRC-5 cells): 16000 ± 2800 nM

CCCCCCCCCCCCCCCCCCOCCO[P@]1(=O)OC[C@H]2O[C@](C#N)(c3ccc4c(N)ncnn34)[C@H](O)[C@@H]2O1 [Compound 19-eq]
CC50 (Calu-3 cells): > 20000 nM | EC50 (SARS-CoV-2 [1]): 2760 ± 808 nM | EC90 (SARS-CoV-2 [1]): 19200 ± 12700 nM

CCCCCCCCCCCCCCCCCCOC[C@@H](COP(=O)(O)OC[C@H]1O[C@@](C#N)(c2ccc3c(N)ncnn23)[C@H](O)[C@@H]1O)OCc1ccccc1 [Compound 15n, 3-O-Octadecyl-2-O-benzyl-sn-glyceryl-1-phospho-RVn]
CC50 (Calu-3 cells): > 20000 nM | EC50 (SARS-CoV-2 [1]): 163 ± 22 nM | EC90 (SARS-CoV-2 [1]): 623 ± 183 nM

2-(Octadecyloxy)ethyl benzyl phospho-RVn [Compound 6c]
EC50 (HCoV-229E): 220 ± 56 nM | EC90 (HCoV-229E): 440 ± 85 nM | CC50 (MRC-5 cells): > 50000 nM

CCCCCCCCCCCCCCCCCCOCC(COP(=O)(O)OC[C@H]1O[C@@](C#N)(c2ccc3c(N)ncnn23)[C@H](O)[C@@H]1O)OCc1ccccc1 (mixture of isomers) [Compound 15e, 1-O-octadecyl-2-O-benzyl-rac-glyceryl-phospho-RVn]
EC50 (SARS-CoV-2 [2]): 163 nM | EC90 (SARS-CoV-2 [2]): 514 nM | CC50 (Calu-3 cells): > 20000 nM | EC50 (HCoV-229E): 210 ± 4 nM | EC90 (HCoV-229E): 350 ± 6 nM | EC50 (SARS-CoV-2 [1]): 210 ± 62 nM | EC90 (SARS-CoV-2 [1]): 763 ± 490 nM | EC50 (SARS-CoV-2 [3]): 242 nM | EC90 (SARS-CoV-2 [3]): 642 nM | CC50 (MRC-5 cells): 30900 ± 7700 nM | CC50 (Huh7.5 cells): > 20000 nM | CC50 (TMPRSS2-Vero cells): > 20000 nM

CCCCCCCCCCCCCCCCCCCCOP(=O)(O)OC[C@H]1O[C@](C#N)(c2ccc3c(N)ncnn23)[C@H](O)[C@@H]1O [Compound 4a, Eicosyl-phospho-RVn]
EC50 (SARS-CoV-2 [2]): 1410 nM | EC90 (SARS-CoV-2 [2]): 4750 nM | CC50 (Calu-3 cells): > 20000 nM | EC50 (HCoV-229E): 910 nM | EC90 (HCoV-229E): 1800 nM | EC50 (SARS-CoV-2 [1]): 178 ± 35 nM | EC90 (SARS-CoV-2 [1]): 1320 ± 566 nM | EC50 (SARS-CoV-2 [3]): 1170 nM | EC90 (SARS-CoV-2 [3]): 2180 nM | CC50 (MRC-5 cells): > 50000 nM | CC50 (Huh7.5 cells): > 20000 nM | CC50 (TMPRSS2-Vero cells): > 20000 nM

CCCCCCCCCCCCCCCCOC[C@H](COP(=O)(O)OC[C@H]1O[C@@](C#N)(c2ccc3c(N)ncnn23)[C@H](O)[C@@H]1O)OCc1ccccc1 [Compound 15b, 1-O-Hexadecyl-2-O-benzyl-sn-glyceryl-phospho-RVn]
EC50 (SARS-CoV-2 [2]): 130 nM | EC90 (SARS-CoV-2 [2]): 309 nM | CC50 (Calu-3 cells): 88200 ± 8890 nM | EC50 (HCoV-229E): 560 ± 270 nM | EC90 (HCoV-229E): 980 ± 380 nM | EC50 (SARS-CoV-2 [1]): 101 ± 20 nM | EC90 (SARS-CoV-2 [1]): 623 ± 272 nM | EC50 (SARS-CoV-2 [3]): 395 nM | EC90 (SARS-CoV-2 [3]): 810 nM | CC50 (MRC-5 cells): > 50000 nM | CC50 (Huh7.5 cells): > 20000 nM | CC50 (TMPRSS2-Vero cells): > 20000 nM

CCCCCCCCCCCCCCCCCCOCCOP1(=O)OCC2OC(C#N)(c3ccc4c(N)ncnn34)C(O)C2O1 (stereo not drawn) [Compound 19-ax]
CC50 (Calu-3 cells): > 20000 nM | EC50 (SARS-CoV-2 [1]): 8150 ± 8420 nM | EC90 (SARS-CoV-2 [1]): > 20000 nM

CCCCCCCCCCCCCCCCCCOC[C@H](COP(=O)(O)OC[C@H]1O[C@@](C#N)(c2ccc3c(N)ncnn23)[C@H](O)[C@@H]1O)OCc1ccc(C(F)(F)F)cc1 [Compound 15p, 1-O-Octadecyl-2-O-(4-trifluoromethyl)benzyl-sn-glyceryl-phospho-RVn]
EC90 (HCoV-229E): 330 ± 39 nM | CC50 (MRC-5 cells): 13900 ± 8800 nM
